Measurements published in paper PMC8205227 (ACS Infectious Diseases, 2021).
Values after ≈ are worked out from the molar mass of the structure shown. Values joined by “and” are separate entries in the source; they are usually repeats but may differ in a detail not shown here. Equal entries are not always repeated. “Also recorded” adds a separate entry of the source. Where two headings read alike, the source gives them in different places.

Legend:
[1] = tested on: CC(C)(COP(=O)(O)O)[C@@H](O)C(=O)NCCC(=O)O; assay: purified protein, by the assay type; conditions: other: other substrates fixed (125 μM CTP or PPA, 500 μM L-cysteine); pH 7.5
[2] = tested on: Nc1ccn([C@@H]2O[C@H](COP(=O)(O)OP(=O)(O)OP(=O)(O)O)[C@@H](O)[C@H]2O)c(=O)n1; assay: purified protein, by the assay type; conditions: other: other substrates fixed (125 μM CTP or PPA, 500 μM L-cysteine); pH 7.5
M. tuberculosis CoaBC = M. tuberculosis CoaBC (Mycobacterium tuberculosis, UniProt P9WNZ1); format: binding
Chain of M. tuberculosis CoaBC (P9WNZ1 whole entry): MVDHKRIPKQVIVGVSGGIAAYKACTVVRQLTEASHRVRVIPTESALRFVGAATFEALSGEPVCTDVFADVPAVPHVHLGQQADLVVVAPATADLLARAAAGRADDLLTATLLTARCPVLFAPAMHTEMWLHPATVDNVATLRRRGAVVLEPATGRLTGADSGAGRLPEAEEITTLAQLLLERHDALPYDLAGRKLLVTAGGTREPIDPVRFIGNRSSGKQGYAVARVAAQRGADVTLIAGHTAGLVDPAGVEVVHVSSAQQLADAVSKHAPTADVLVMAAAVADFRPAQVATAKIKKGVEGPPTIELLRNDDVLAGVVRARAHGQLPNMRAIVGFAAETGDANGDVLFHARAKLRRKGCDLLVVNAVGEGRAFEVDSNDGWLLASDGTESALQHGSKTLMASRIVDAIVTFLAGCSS

coaBC Tet-OFF hypomorph = assay: microbe, parasite or virus in culture; format: cell-based, Mycobacterium tuberculosis; conditions: for Effect of ATc-mediated coaBC silencing on susceptibility of the coaBC hypomorph (hypersensitization): increasing ATc, inhibitor up to 125 μM; for MIC: read-out: MIC in the presence of PantS
Mtb CoaB = Mtb CoaB (Mycobacterium tuberculosis, UniProt P9WNZ1); assay: BIOMOL Green end-point pyrophosphate quantification assay (high-throughput screen); format: biochemical
Chain of Mtb CoaB (P9WNZ1 whole entry): as above

Mtb H37RvMA [3] = assay: microbe, parasite or virus in culture; format: cell-based, Mycobacterium tuberculosis
HepG2 cells = assay: HepG2 cytotoxicity; format: cell-based; conditions: Homo sapiens
Description: (§1) Compounds were profiled for HepG2 cytotoxicity, mouse liver microsomal clearance, and aqueous solubility, as previously described.[66]

[4] = format: in vitro ADME, mouse; conditions: microsomes
Description: as §1

physchem [5] = format: physicochemical; conditions: kinetic from dmso stock
Description: as §1

physchem [6] = format: physicochemical
Description: Table 1 SAR and In Vitro Profiling of Modifications to Compound 1a ^a | column: CHI LogD

panC Tet-OFF hypomorph = format: cell-based, Mycobacterium tuberculosis; conditions: pantothenate 25 µg/mL
coaBC hypomorph = format: cell-based, Mycobacterium tuberculosis; conditions: ATc 200 ng/mL; pantothenate 25 µg/mL
Mtb CoaE = tested on: Mtb CoaE; design: method as in PMID 21731728; conditions: 100 μM CTP; cited from earlier work
Mtb H37RvMA [7] = tested on: Mtb H37RvMA; design: method as in PMID 33420031; conditions: cited from earlier work
CoaB = tested on: CoaB; design: method as in PMID 33420031; conditions: allosteric CoaB inhibitor; cited from earlier work
wild-type Mtb H37RvMA = assay: LC-MS metabolomic profiling of Mtb after compound exposure; format: cell-based, Mycobacterium tuberculosis; conditions: 5 μM or 50 μM, 24 h
Mtb CoaBC [8] = target: T1, Mtb CoaBC (Mycobacterium tuberculosis, UniProt P9WNZ1); assay: biochemical
T1 sequence (P9WNZ1 whole entry): as above

Mtb CoaBC [9] = target: T1, Mtb CoaBC; assay: CMP quantification assay for L-cysteine kinetics and competition; format: biochemical
human CoaB = human CoaB (Homo sapiens, UniProt Q9HAB8); assay: EnzChek coupled enzyme pyrophosphate assay, human CoaB; format: biochemical; conditions: 1 μM human CoaB; read-out: IC50 against human CoaB (EnzChek assay)
Chain of human CoaB (Q9HAB8 whole entry): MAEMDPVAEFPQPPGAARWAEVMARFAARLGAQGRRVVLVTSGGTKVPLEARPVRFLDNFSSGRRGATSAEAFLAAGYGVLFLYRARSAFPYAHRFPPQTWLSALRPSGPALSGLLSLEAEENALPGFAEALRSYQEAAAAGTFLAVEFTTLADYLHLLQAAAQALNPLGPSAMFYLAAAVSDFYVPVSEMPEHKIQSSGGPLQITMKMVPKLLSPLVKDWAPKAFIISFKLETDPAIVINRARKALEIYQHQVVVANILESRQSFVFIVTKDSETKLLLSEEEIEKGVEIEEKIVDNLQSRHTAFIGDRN

[10] = tested on: coupled reporter enzymes (inorganic pyrophosphatase, purine nucleoside phosphorylase); assay: Inhibition of the coupled reporter enzymes of the EnzChek assay; format: biochemical; conditions: at 100 μM
Mtb CoaBC [11] = target: T1, Mtb CoaBC
[12] = BIOMOL Green pyrophosphate quantification assay
[13] = Mycobacterium tuberculosis, H37RV, read-out: Mtb H37Rv MIC

Molecule: Mtb CoaBC (Mycobacterium tuberculosis H37Rv)
- Km [1]: 45.4 ± 5.3 µM
- Km [2]: 27.4 ± 2.6 µM

Molecule: N[C@@H](CS)C(=O)O [L-cysteine]
- Thermal shift relative to CoaBC, Substrate (M. tuberculosis CoaBC): 0.5 °C

Molecule: NNC(=O)c1ccncc1 [isoniazid, reference compound]
- Effect of ATc-mediated coaBC silencing on susceptibility of the coaBC hypomorph (hypersensitization) (coaBC Tet-OFF hypomorph): did not render the coaBC hypomorph more susceptible

Molecule: Cc1nn(-c2ccccc2)c(O)c1Sc1ccc(Cl)cc1Cl [Compound 1d]
- IC50 (Mtb CoaB; [12]): 3.2 µM
- MIC (Mtb H37RvMA [3]; [13]): > 125 µM
- IC50 (HepG2 cells): > 50 µM

Molecule: Cc1nn(-c2ccccc2)c(O)c1Sc1ccc(Cl)cc1 [Compound 1c, 4-(4-Chlorophenyl)sulfanyl-5-methyl-2-phenyl-pyrazol-3-ol]
- IC50 (Mtb CoaB; [12]): 4 µM
- Mouse Cli (intrinsic clearance) ([4]; mouse): 2.2 mL/min/g
- solubility kinetic (physchem [5]): 110 µM (≈ 34.8 µg/mL)
- chromatographic logD (physchem [6]): 0.7
- MIC (Mtb H37RvMA [3]; [13]): > 125 µM
- IC50 (HepG2 cells): > 50 µM

Molecule: CC(C)(CO)[C@@H](O)C(=O)NCCC(=O)O [Pan, pantothenate]
- Rescue from growth inhibitory effects of PanC deficiency (panC Tet-OFF hypomorph): fully rescued
- Rescue of growth of the coaBC hypomorph (coaBC hypomorph): unable to restore growth

Molecule: Cc1nn(-c2ccc(Cl)cc2)c(O)c1Sc1ccc(Cl)cc1 [Compound 1g, 2-(4-Chlorophenyl)-4-(4-chlorophenyl)sulfanyl-5-methyl-pyrazol-3-ol]
- IC50 (Mtb CoaB; [12]): 3.5 µM
- Mouse Cli (intrinsic clearance) ([4]; mouse): 2.8 mL/min/g
- solubility kinetic (physchem [5]): 110 µM (≈ 38.6 µg/mL)
- chromatographic logD (physchem [6]): 1.5
- MIC (Mtb H37RvMA [3]; [13]): > 125 µM
- Effect of ATc-mediated coaBC silencing on susceptibility of the coaBC hypomorph (hypersensitization) (coaBC Tet-OFF hypomorph): lack of hypersensitization

Molecule: Nc1ccn([C@@H]2O[C@H](COP(=O)(O)OP(=O)(O)OP(=O)(O)O)[C@@H](O)[C@H]2O)c(=O)n1 [CTP, cytidine-5′-triphosphate]
- Decrease in CoaE activity (Mtb CoaE): greater than 60%
- Thermal shift relative to CoaBC, Substrate (M. tuberculosis CoaBC): 5.5 °C

Molecule: CC(C)(COP(=O)(O)O)[C@@H](O)C(=O)NCCC(=O)O [PPA, 4′-phosphopantothenate]
- Thermal shift relative to CoaBC, Substrate (M. tuberculosis CoaBC): 3.5 °C

Molecule: CO[C@H]1/C=C/O[C@@]2(C)Oc3c(C)c(O)c4c(O)c(c(/C=N/N5CCN(C)CC5)c(O)c4c3C2=O)NC(=O)/C(C)=C\C=C\[C@H](C)[C@H](O)[C@@H](C)[C@@H](O)[C@@H](C)[C@H](OC(C)=O)[C@@H]1C [rifampicin, reference compound]
- Effect of ATc-mediated coaBC silencing on susceptibility of the coaBC hypomorph (hypersensitization) (coaBC Tet-OFF hypomorph): did not render the coaBC hypomorph more susceptible

Molecule: O=c1cc(-c2ccc(O)c(O)c2)oc2cc(O)c(O)cc12 [Compound 2b, reference compound]
- MIC against Mtb (whole-cell activity) (Mtb H37RvMA [7]): > 250 µM
- IC50 (CoaB): 0.08 µM
- Change in abundance of CoA thioesters propionyl-CoA, succinyl-CoA and malonyl-CoA relative to untreated bacilli (wild-type Mtb H37RvMA): notable depletion
- Change in abundance of dephospho-CoA relative to untreated bacilli (wild-type Mtb H37RvMA): substantial accumulation
- Change in the level of CoA (wild-type Mtb H37RvMA): no detectable change

Molecule: Cc1nn(-c2cccc(Cl)c2)c(O)c1Sc1ccc(Cl)cc1 [Compound 1h, 2-(3-Chlorophenyl)-4-(4-chlorophenyl)sulfanyl-5-methyl-pyrazol-3-ol]
- IC50 (Mtb CoaB; [12]): 2.3 µM
- Mouse Cli (intrinsic clearance) ([4]; mouse): 2.6 mL/min/g
- solubility kinetic (physchem [5]): 55 µM (≈ 19.3 µg/mL)
- chromatographic logD (physchem [6]): 1.5
- MIC (Mtb H37RvMA [3]; [13]): > 125 µM
- Effect of ATc-mediated coaBC silencing on susceptibility of the coaBC hypomorph (hypersensitization) (coaBC Tet-OFF hypomorph): lack of hypersensitization

Molecule: Cc1nn(-c2ccc(Cl)cn2)c(O)c1Sc1ccc(Cl)cc1 [Compound 1i]
- IC50 (Mtb CoaB; [12]): > 50 µM
- Mtb CoaB IC50 (Mtb CoaB; [12]): complete loss of inhibitory activity
- Mouse Cli (intrinsic clearance) ([4]; CD1, mouse): <0.5 mL/min/g
- solubility kinetic (physchem [5]): 79 µM (≈ 27.8 µg/mL)
- chromatographic logD (physchem [6]): 3.7
- MIC (Mtb H37RvMA [3]; [13]): 6.2 µM (≈ 2.18 µg/mL)
- Effect of ATc-mediated coaBC silencing on susceptibility of the coaBC hypomorph (hypersensitization) (coaBC Tet-OFF hypomorph): lack of hypersensitization
- IC50 (HepG2 cells): 40 µM

Molecule: Cc1nn(-c2ccccc2)c(O)c1Sc1nc2cc(Cl)ccc2o1 [Compound 1f, 4-(5-Chloro-1,3-benzoxazol-2-yl)sulfanyl-5-methyl-2-phenyl-pyrazol-3-ol]
- IC50 (Mtb CoaB; [12]): 15.6 µM
- Mouse Cli (intrinsic clearance) ([4]; mouse): 2.3 mL/min/g
- IC50 (Mtb CoaBC [8]): 24.3 µM
- Ki (Mtb CoaBC [8]): 10.1 ± 1.4 µM
- solubility kinetic (physchem [5]): 219 µM (≈ 78.4 µg/mL)
- chromatographic logD (physchem [6]): 0.8
- Mode of inhibition with respect to L-cysteine (Mtb CoaBC [9]): noncompetitive inhibition
- Ki (Mtb CoaBC [9]; varying L-cysteine): 22.7 ± 7.6 µM
- Change in abundance of CoA thioesters propionyl-CoA, succinyl-CoA and malonyl-CoA relative to untreated bacilli (wild-type Mtb H37RvMA): notable depletion
- Change in abundance of dephospho-CoA relative to untreated bacilli (wild-type Mtb H37RvMA): substantial accumulation
- Change in the level of CoA (wild-type Mtb H37RvMA): no detectable change
- Effect of ATc on activity against wild-type Mtb H37RvMA (Mtb H37RvMA [3]): no effect
- Rescue from compound toxicity by PantS supplementation (Mtb H37RvMA [3]): rescued the wild-type strain
- MIC (Mtb H37RvMA [3]; [13]): 25.9 µM (≈ 9.27 µg/mL)
- MIC (Mtb H37RvMA [3]; Mycobacterium tuberculosis, H37RVMA, read-out: MIC in the presence of PantS): 83.3 µM
- MIC (Mtb H37RvMA [3]; read-out: MIC in the presence of PantS): > 125 µM
- IC50 (human CoaB): 23.4 µM
- MIC (coaBC Tet-OFF hypomorph; Mycobacterium tuberculosis): 77.2 µM
- Fold decrease in MIC against coaBC hypomorph (coaBC Tet-OFF hypomorph; in the presence of 12.5 ng/mL ATc): ~7 fold
- Effect of ATc-mediated coaBC silencing on susceptibility of the coaBC hypomorph (hypersensitization) (coaBC Tet-OFF hypomorph): dose-dependent hypersensitization
- Fold reduction in susceptibility of coaBC hypomorph on PantS supplementation (coaBC Tet-OFF hypomorph; pantethine 2.5 mg/mL): 4 fold
- MIC (coaBC Tet-OFF hypomorph): > 125 µM
- IC50 (HepG2 cells): > 50 µM
- ΔTm (difference in melting temperature in the presence and absence of 1f) (M. tuberculosis CoaBC): 0 °C and 1 °C
- Activity on the coupled reporter enzymes [10]: inactive
- Mode of inhibition with respect to CTP (Mtb CoaBC [11]): noncompetitive inhibition
- Mode of inhibition with respect to PPA (Mtb CoaBC [11]): uncompetitively; also recorded: uncompetitive inhibition
- αKi, uncompetitive inhibition for PPA (Mtb CoaBC [11]; varying PPA): 19.0 ± 0.6 µM

Molecule: Cc1ccc(Sc2c(C)nn(-c3ccccc3)c2O)cc1 [Compound 1b, 4-(4-Methylphenyl)sulfanyl-5-methyl-2-phenyl-pyrazol-3-ol]
- IC50 (Mtb CoaB; [12]): 3.3 µM
- Mouse Cli (intrinsic clearance) ([4]; mouse): 1.1 mL/min/g
- solubility kinetic (physchem [5]): 156 µM (≈ 46.2 µg/mL)
- chromatographic logD (physchem [6]): 0.7
- MIC (Mtb H37RvMA [3]; [13]): > 125 µM
- IC50 (HepG2 cells): > 50 µM

Molecule: Nc1ccn([C@@H]2O[C@H](COP(=O)(O)O)[C@@H](O)[C@H]2O)c(=O)n1 [CMP, cytidine-5′-monophosphate]
- Thermal shift relative to CoaBC, Substrate (M. tuberculosis CoaBC): 1.5 °C

Molecule: COc1ccc(Sc2c(C)nn(-c3ccccc3)c2O)cc1 [Compound 1e, 4-(4-Methoxyphenyl)sulfanyl-5-methyl-2-phenyl-pyrazol-3-ol]
- Fold increase in potency against Mtb CoaB relative to 1a (Mtb CoaB): 4 fold
- IC50 (Mtb CoaB; [12]): 2.8 µM
- MIC (Mtb H37RvMA [3]; [13]): > 125 µM
- IC50 (HepG2 cells): > 50 µM
